Results on 15 compounds are retold here after PubChem BioAssay AID256 (DTP/NCI, 2004).

For the assay, the system named is CD2F1 mice, L1210 leukemia ip, survival T/C. The assay can be described thus: NCI In Vivo Anticancer Drug Screen. Data for tumor model L1210 Leukemia (intraperitoneal) in CD2F1 (CDF1) mice. As to conditions: higher = longer survival. The gist of the method: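 Read-out first: treated-group measurement over vehicle-control measurement, expressed as a ratio. Animals bore a transplanted tumor line and were dosed with compound or vehicle.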

Setting [1] is: endpoint: mean survival time, dose: 25.0 mg/kg/injection, schedule: Q01DX009 (ip), vehicle: Klucel (hydroxypropylcellulose) (HPC).
[2] abbreviates: endpoint: mean survival time, dose: 50.0 mg/kg/injection, schedule: Q01DX009 (ip), vehicle: Klucel (hydroxypropylcellulose) (HPC).
Setting [3] is: endpoint: mean survival time, dose: 100.0 mg/kg/injection, schedule: Q01DX009 (ip), vehicle: saline.
[4] abbreviates: endpoint: mean survival time, dose: 100.0 mg/kg/injection, schedule: Q04DX003 (ip), vehicle: saline with Tween-80.
[5] abbreviates: endpoint: mean survival time, dose: 200.0 mg/kg/injection, schedule: Q04DX003 (ip), vehicle: saline with Tween-80.
[6] abbreviates: endpoint: mean survival time, dose: 400.0 mg/kg/injection, schedule: Q04DX003 (ip), vehicle: saline with Tween-80.
[7] abbreviates: endpoint: mean survival time, dose: 100.0 mg/kg/injection, schedule: Q01DX009 (ip), vehicle: saline with Tween-80.
Setting [8] is: endpoint: mean survival time, dose: 200.0 mg/kg/injection, schedule: Q01DX009 (ip), vehicle: saline with Tween-80.
[9] abbreviates: endpoint: mean survival time, dose: 400.0 mg/kg/injection, schedule: Q01DX009 (ip), vehicle: saline with Tween-80.

“And” between values parts separate entries of the source, which are not always exact repeats. Identical values can stand only once. Inconclusive results and toxic doses are left out.

With `CCCCCC[C@H]([C@H](C)O)n1cnc2c(N)ncnc21`, the T/C is 92 % of control (endpoint: mean survival time, dose: 0.38 mg/kg/injection, schedule: Q03HX024 (ip), vehicle: saline with Tween-80); 96 % of control (endpoint: mean survival time, dose: 0.57 mg/kg/injection, schedule: Q03HX024 (ip), vehicle: saline with Tween-80); 102 % of control (endpoint: mean survival time, dose: 1.3 mg/kg/injection, schedule: Q03HX024 (ip), vehicle: saline with Tween-80); 98 % of control (endpoint: mean survival time, dose: 2.0 mg/kg/injection, schedule: Q03HX024 (ip), vehicle: saline with Tween-80); 96 % of control (endpoint: mean survival time, dose: 3.0 mg/kg/injection, schedule: Q03HX024 (ip), vehicle: saline with Tween-80); 98 % of control (endpoint: mean survival time, dose: 4.5 mg/kg/injection, schedule: Q03HX024 (ip), vehicle: saline with Tween-80). Further, the T/C (endpoint: mean survival time, dose: 5.0 mg/kg/injection, schedule: Q03HX024 (ip), vehicle: saline with Tween-80) was 104 % of control; the T/C (endpoint: mean survival time, dose: 6.25 mg/kg/injection, schedule: Q01DX009 (ip), vehicle: Klucel (hydroxypropylcellulose) (HPC)) was 95 % of control and 100 % of control; the T/C (endpoint: mean survival time, dose: 10.0 mg/kg/injection, schedule: Q03HX024 (ip), vehicle: saline with Tween-80) was 107 % of control; the T/C (endpoint: mean survival time, dose: 12.5 mg/kg/injection, schedule: Q01DX009 (ip), vehicle: Klucel (hydroxypropylcellulose) (HPC)) was 98 % of control and 100 % of control; the T/C under setting [1] was 100 % of control and 101 % of control; the T/C (endpoint: mean survival time, dose: 25.0 mg/kg/injection, schedule: Q03HX024 (ip), vehicle: saline with Tween-80) is 105 % of control. The T/C reads like this: under setting [2], 97 % of control and 100 % of control; (endpoint: mean survival time, dose: 50.0 mg/kg/injection, schedule: Q03HX024 (ip), vehicle: saline with Tween-80) 105 % of control; (endpoint: mean survival time, dose: 100.0 mg/kg/injection, schedule: Q01DX009 (ip), vehicle: Klucel (hydroxypropylcellulose) (HPC)) 95 % of control and 100 % of control; (endpoint: mean survival time, dose: 100.0 mg/kg/injection, schedule: Q03HX024 (ip), vehicle: saline with Tween-80) 96 % of control; (endpoint: mean survival time, dose: 200.0 mg/kg/injection, schedule: Q01DX009 (ip), vehicle: Klucel (hydroxypropylcellulose) (HPC)) 100 % of control; (endpoint: median survival time, dose: 25.0 mg/kg/injection, schedule: Q01DX009 (ip), vehicle: Klucel (hydroxypropylcellulose) (HPC)) 96 % of control. The T/C was 101 % of control (endpoint: median survival time, dose: 50.0 mg/kg/injection, schedule: Q01DX009 (ip), vehicle: Klucel (hydroxypropylcellulose) (HPC)) and 97 % of control (endpoint: median survival time, dose: 100.0 mg/kg/injection, schedule: Q01DX009 (ip), vehicle: Klucel (hydroxypropylcellulose) (HPC)).

`CCCN1CCN(c2ccccc2)CC1`: the T/C is, setting by setting: (endpoint: mean survival time, dose: 25.0 mg/kg/injection, schedule: Q01DX009 (ip), vehicle: saline) 103 % of control; (endpoint: mean survival time, dose: 50.0 mg/kg/injection, schedule: Q01DX009 (ip), vehicle: saline) 103 % of control; under setting [3], 96 % of control; under setting [4], 103 % of control.

As to `COc1ccc(CC2c3cc(OC)c(OC)cc3CCN2C(C)=O)cc1` (centres undefined), the T/C under setting [4] was 101 % of control, the T/C under setting [5] was 100 % of control and the T/C under setting [6] was 100 % of control.

With `Cc1ccoc1N(O)c1occc1C`, the T/C was 93 % of control (endpoint: mean survival time, dose: 100.0 mg/kg/injection, schedule: Q01DX001 (ip), vehicle: saline with Tween-80); 101 % of control (endpoint: mean survival time, dose: 200.0 mg/kg/injection, schedule: Q01DX001 (ip), vehicle: saline with Tween-80); 95 % of control (endpoint: mean survival time, dose: 400.0 mg/kg/injection, schedule: Q01DX001 (ip), vehicle: saline with Tween-80).

For `Nc1nc(Cl)c2nc(Cl)n(C3OC(CO)C(O)C3O)c2n1` (centres undefined), the T/C reads like this: (endpoint: mean survival time, dose: 100.0 mg/kg/injection, schedule: Q01DX001 (ip), vehicle: saline) 102 % of control; (endpoint: mean survival time, dose: 200.0 mg/kg/injection, schedule: Q01DX001 (ip), vehicle: saline) 102 % of control; (endpoint: mean survival time, dose: 400.0 mg/kg/injection, schedule: Q01DX001 (ip), vehicle: saline) 100 % of control.

With `O=C1c2ccccc2C(=O)c2c(NCCSCCO)ccc(NCCSCCO)c21`, the T/C is 100 % of control (endpoint: mean survival time, dose: 16.0 mg/kg/injection, schedule: Q01DX009 (ip), vehicle: Klucel (hydroxypropylcellulose) (HPC)); 102 % of control (endpoint: mean survival time, dose: 32.0 mg/kg/injection, schedule: Q01DX009 (ip), vehicle: Klucel (hydroxypropylcellulose) (HPC)); 93 % of control (endpoint: mean survival time, dose: 64.0 mg/kg/injection, schedule: Q01DX009 (ip), vehicle: Klucel (hydroxypropylcellulose) (HPC)); 93 % of control (endpoint: mean survival time, dose: 128.0 mg/kg/injection, schedule: Q01DX009 (ip), vehicle: Klucel (hydroxypropylcellulose) (HPC)); 102 % of control (endpoint: mean survival time, dose: 256.0 mg/kg/injection, schedule: Q01DX009 (ip), vehicle: Klucel (hydroxypropylcellulose) (HPC)).

For `O=[P+](O)O[P+](=O)O.O=[P+](O)O[P+](=O)O.O=[P+](O)O[P+](=O)O.O=[P+](O)O[P+](=O)O.[Cl][Pt].[Cl][Pt]`, the T/C is, setting by setting: (endpoint: median survival time, dose: 3.12 mg/kg/injection, schedule: Q04DX003 (ip), vehicle: saline) 102 % of control; (endpoint: median survival time, dose: 6.25 mg/kg/injection, schedule: Q04DX003 (ip), vehicle: saline) 96 % of control; (endpoint: median survival time, dose: 12.5 mg/kg/injection, schedule: Q04DX003 (ip), vehicle: saline) 95 % of control; (endpoint: median survival time, dose: 25.0 mg/kg/injection, schedule: Q04DX003 (ip), vehicle: saline) 97 % of control; (endpoint: median survival time, dose: 50.0 mg/kg/injection, schedule: Q04DX003 (ip), vehicle: saline) 104 % of control.

As for `CC(SCc1ccccc1)C(NC(=O)c1ccccc1)C(=O)O` (centres undefined), the T/C is, setting by setting: under setting [7], 93 % of control; under setting [4], 98 % of control; under setting [8], 90 % of control; under setting [5], 98 % of control; under setting [9], 93 % of control; under setting [6], 101 % of control.

For the compound `COc1cccc(CCN)c1`, the T/C reads like this: (endpoint: mean survival time, dose: 18.75 mg/kg/injection, schedule: Q01DX009 (ip), vehicle: saline sonified) 98 % of control; (endpoint: mean survival time, dose: 37.5 mg/kg/injection, schedule: Q01DX009 (ip), vehicle: saline sonified) 97 % of control; (endpoint: mean survival time, dose: 37.5 mg/kg/injection, schedule: Q01DX009 (ip), vehicle: saline with Tween-80) 108 % of control; (endpoint: mean survival time, dose: 75.0 mg/kg/injection, schedule: Q01DX009 (ip), vehicle: saline sonified) 97 % of control; (endpoint: mean survival time, dose: 75.0 mg/kg/injection, schedule: Q01DX009 (ip), vehicle: saline with Tween-80) 103 % of control.

As for `CC(=O)C1=C(C)NC(C)=C(C(C)=O)C1c1ccccc1`, the T/C under setting [7] was 103 % of control, the T/C under setting [8] is 107 % of control and the T/C under setting [9] is 107 % of control.

With `CC(O)CN1CC(C)OC(C)C1` (centres undefined), the T/C is 100 % of control under setting [3]; 103 % of control (endpoint: mean survival time, dose: 100.0 mg/kg/injection, schedule: Q04DX003 (ip), vehicle: saline); 100 % of control (endpoint: mean survival time, dose: 200.0 mg/kg/injection, schedule: Q01DX009 (ip), vehicle: saline); 103 % of control (endpoint: mean survival time, dose: 200.0 mg/kg/injection, schedule: Q04DX003 (ip), vehicle: saline); 100 % of control (endpoint: mean survival time, dose: 400.0 mg/kg/injection, schedule: Q01DX009 (ip), vehicle: saline); 101 % of control (endpoint: mean survival time, dose: 400.0 mg/kg/injection, schedule: Q04DX003 (ip), vehicle: saline).

As for `CC(=O)Nc1ncc2ccccc2c1-c1ccc(NC(=O)CN(CCCl)CCCl)cc1`, the T/C is 112 % of control (endpoint: mean survival time, dose: 25.0 mg/kg/injection, schedule: Q04DX003 (ip), vehicle: other); 116 % of control (endpoint: mean survival time, dose: 50.0 mg/kg/injection, schedule: Q04DX003 (ip), vehicle: other); 112 % of control (endpoint: mean survival time, dose: 100.0 mg/kg/injection, schedule: Q04DX003 (ip), vehicle: other); 124 % of control (endpoint: mean survival time, dose: 200.0 mg/kg/injection, schedule: Q04DX003 (ip), vehicle: other).

Take `O=C(NC(CSCc1ccccc1)C(=O)O)OCc1ccccc1` (centres undefined): the T/C is 98 % of control (endpoint: mean survival time, dose: 50.0 mg/kg/injection, schedule: Q01DX009 (ip), vehicle: saline with Tween-80); 94 % of control under setting [7]; 93 % of control under setting [4]; 103 % of control under setting [8]; 101 % of control under setting [5].

As for `O=C(CCC(NC(=O)OCc1ccccc1)C(=O)O)OCc1ccccc1` (centres undefined), the T/C is, setting by setting: under setting [4], 100 % of control; under setting [5], 101 % of control; under setting [6], 94 % of control.

Take `CN1c2c(nc(N)[nH]c2=O)NCC1CCNc1ccc(C(=O)NC(CCC(=O)O)C(=O)O)cc1` (centres undefined): the T/C under setting [1] is 118 % of control; the T/C under setting [2] was 123 % of control; the T/C (endpoint: mean survival time, dose: 200.0 mg/kg/injection, schedule: Q01DX009 (ip), vehicle: sodium bicarbonate) is 119 % of control; the T/C (endpoint: mean survival time, dose: 1250.0 mg/kg/injection, schedule: Q01DX009 (ip), vehicle: sodium bicarbonate) is 155 % of control.
